The values below come from US11161819B2, “Substituted tetrahydroisoquinoline compounds useful as GPR120 agonists” (Merck Sharp & Dohme Corp., priority 2016, dated 2021).

Molecules are shown by their SMILES.

The target of the test is T1, human GPR120 (Homo sapiens, UniProt Q5NUL3).
T1 construct: expressed in transfected cells
T1 sequence (Q5NUL3 1-361): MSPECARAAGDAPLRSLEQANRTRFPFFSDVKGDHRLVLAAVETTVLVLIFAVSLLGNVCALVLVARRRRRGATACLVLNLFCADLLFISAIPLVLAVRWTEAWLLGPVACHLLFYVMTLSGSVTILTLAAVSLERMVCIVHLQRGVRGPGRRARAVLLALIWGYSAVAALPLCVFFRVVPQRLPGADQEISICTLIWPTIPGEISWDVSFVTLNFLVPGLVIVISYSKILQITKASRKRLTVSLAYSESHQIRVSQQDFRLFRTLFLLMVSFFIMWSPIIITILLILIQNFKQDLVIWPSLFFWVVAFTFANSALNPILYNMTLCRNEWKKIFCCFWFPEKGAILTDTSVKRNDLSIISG
Nature of the test: Human GPR120 IP1 Assay (inositol phosphate turnover, CisBio IP-One kit). The settings on record: IP1 accumulation in CHO-K1 cells stably expressing the short form of human GPR120; 60 min compound incubation; 4-parameter fit; read-out: hGPR120 EC50. The format is cell-based. The source says: Human GPR120 IP1 Assay Principle
The binding of small molecule agonists to the G-protein-coupled receptor GPR120 activates phospholipase C, and leads to the generation of inositol 1,4,5-trisphosphate (InsP3 or IP3). IP3 is subsequently de-phosphorylated to IP1, which accumulates in cells and is stable in the presence of lithium chloride.
In the present method, agonist-induced activation of the human GPR120 receptor was monitored by measuring the accumulation of IP1 in CHO-K1 cells that were stably expressing the short form of human GPR120 (Accession #NM_001195755). Following agonist addition, GPR120 activation and subsequent accumulation of IP1 was measured using a homogeneous Time Resolved Fluorescence-based ELISA commercially available from CisBio (IP-one ELISA Kit). The IP-One ELISA was a competitive immunoassay which uses IP1 labeled with […] and a terbium cryptate-labeled anti-IP1 monoclonal antibody. […] The signal loss was then back calculated to IP1 concentration using an IP1 standard curve. Determination of IP1 concentration was a direct measure of GPR120 activation and was used to determine compound potency (EC50).
Generation of GPR120-Expressing Cells:
Human GPR120 stable cell-lines were generated in CHO cells. The expression plasmids were transfected using lipofectamine (Life Technologies) following manufacturer's instructions. Stable cell-lines were generated following drug selection and single cell cloning.
Inositol Phosphate Turnover (IP1) Assay:
The assay was performed in 384-well format. CHO cells stably expressing human GPR120 were plated at […] per well in growth medium (DMEM/F12, 10% fetal calf serum). Cell plates were then incubated 16 hours at 37 degrees in a 5% CO2 incubator. Measurement of Inositol Phosphate Turnover (IP1) was performed using the CisBio IP-One kit (Part number 62IPAPEB). After the 16 hour incubation, the growth media was removed by centrifugation using the BlueWasher (AusWasher GUI Ver. v1.0.1.8) Protocol #21-“Light Dry” and 10 ul of stimulation buffer (prepared as described in the kit) was added to each well. In a separate plate, compounds were diluted in DMSO (200-fold over the final concentration in the assay well) and 50 nl was acoustically transferred to the appropriate well in the assay cell plate. The plates were then incubated for 60 minutes at 37 degrees in a 5% CO2 incubator. 10 ul of detection buffer (also prepared as described in the IP-One kit) was added to each well and the plates were incubated at room temperature for 60 minutes in the dark. The plates were then read in a Perkin Elmer EnVision or equivalent reader able to measure FRET. Fluorescent ratio of emission at 665 and 620 nm was then converted to the IP1 concentration by back calculating from an IP1 standard curve prepared at the time of the assay. The data was normalized to % activity using a reference compound, and the EC50 values were determined using a standard 4-parameter fit.
In the case of `O=C(O)[C@H]1C[C@@H]1c1ccc2c(c1F)CCN(c1cc(OC(F)(F)F)ccc1F)C2` [Example 118, (1S,2S)-2-{5-fluoro-2-[2-fluoro-5-(trifluoromethoxy)phenyl]-1,2,3,4-tetrahydroisoquinolin-6-yl} cyclopropane-carboxylic acid], the EC50 is 0.215 µM.

In the case of `O=C(O)CCc1ccc2c(c1)CCN(c1cc3c(C(F)(F)F)noc3cc1F)C2` [Example 29, 3-{2-[6-fluoro-3-(trifluoromethyl)-1,2-benzisoxazol-5-yl]-1,2,3,4-tetrahydroisoquinolin-6-yl}-propanoic acid], the EC50 stood at 0.171 µM.

As to `Cc1ccc(-n2nc(C)c(F)c2N2CCc3cc(C4CC4C(=O)O)ccc3C2)cc1` (stereo not shown) [Example 96, 2-{2-[4-fluoro-3-methyl-1-(4-methylphenyl)-1H-pyrazol-5-yl]-1,2,3,4-tetrahydroisoquinolin-6-yl}cyclopropanecarboxylic acid], the EC50 worked out at 0.834 µM.

Turning to `Cc1ccc(-n2nc(C)c(F)c2N2CCc3cc(C4CC4C(=O)O)ccc3C2)cc1` (stereo not shown) [Example 94, 2-{2-[4-fluoro-3-methyl-1-(4-methylphenyl)-1H-pyrazol-5-yl]-1,2,3,4-tetrahydroisoquinolin-6-yl}cyclo-propanecarboxylic acid], the EC50 came out at 0.473 µM.

`COc1cc(O[C@H]2C[C@H](OC)C2)cc(N2CCc3cc([C@H]4C[C@@H]4C(=O)O)ccc3C2)c1C#N` [Example 97, (1S,2S)-2-(2-{2-cyano-3-methoxy-5-[(trans-3-methoxycyclobutyl)oxy]phenyl}-1,2,3,4-tetrahydroisoquinolin-6-yl) cyclopropanecarboxylic acid]: the 50% effective concentration (EC50) was found to be 1.58 µM.

As for `COc1cc(Cl)c(N2CCc3cc(CCC(=O)O)ccc3C2)cc1OC1CCC1` [Example 24, 3-{2-[2-chloro-5-(cyclobutyloxy)-4-methoxyphenyl]-1,2,3,4-tetrahydroisoquinolin-6-yl}propanoic acid], the EC50 turned out to be 0.061 µM.

With `O=C(O)CCc1ccc2c(c1)CCN(c1cncc(OC3CCC3)n1)C2` [Example 41, 3-{2-[6-(cyclobutyloxy)pyrazin-2-yl]-1,2,3,4-tetrahydroiso-quinolin-6-yl}propanoic acid], the EC50 turned out to be 0.569 µM.

On to `N#Cc1ccc(OC2CCC2)cc1N1CCc2c(ccc(CCC(=O)O)c2F)C1` [Example 76, 3-{2-[2-cyano-5-(cyclobutyloxy)-phenyl]-5-fluoro-1,2,3,4-tetrahydro-isoquinolin-6-yl}propanoic acid], for which the EC50 came out at 0.845 µM.

With `Cc1cc2c(c(F)c1CCC(=O)O)CCN(c1cc(OC(F)(F)F)ccc1F)C2` [Example 58, 3-(5-fluoro-2-(2-fluoro-5-(trifluoromethoxy)phenyl)-7-methyl-1,2,3,4-tetra-hydroisoquinolin-6-yl)propanoic acid], the EC50 worked out at 0.472 µM.

Regarding `O=C(O)CCc1ccc2c(c1)CCN(c1cc(OC(F)(F)F)ccc1F)C2` [Example 27, 3-{2-[2-fluoro-5-(trifluoro-methoxy)phenyl]-1,2,3,4-tetrahydro-isoquinolin-6-yl}propanoic acid], the EC50 was 0.061 µM.

On to `O=C(O)[C@H]1C[C@@H]1c1ccc2c(c1F)CCN(c1cc(OC3CCC3)cc(Cl)c1F)C2` [Example 125, (1S,2S)-2-{2-[3-chloro-5-(cyclobutyloxy)-2-fluorophenyl]-5-fluoro-1,2,3,4-tetrahydroisoquinolin-6-yl}cyclopropane-carboxylic acid], for which the EC50 was 0.414 µM.

In the case of `O=C(O)CCc1ccc2c(c1)CCN(c1cc(Oc3ccc(F)cn3)cc(C(F)F)c1F)C2` [Example 35, 3-(2-{3-(difluoromethyl)-2-fluoro-5-[(5-fluoropyridin-2-yl)oxy]phenyl}-1,2,3,4-tetrahydroisoquinolin-6-yl) propanoic acid], the EC50 stood at 0.312 µM.

`CO[C@H]1C[C@H](Oc2cc(F)c(F)c(N3CCc4c(ccc([C@H]5C[C@@H]5C(=O)O)c4F)C3)c2)C1` [Example 106, (1 S,2S)-2-(2-(2,3-difluoro-5-((1 r,3S)-3-methoxycyclobutoxy)phenyl)-5-fluoro-1,2,3,4-tetra-hydroisoquinolin-6-yl)cyclopropanecarboxylic acid]: the EC50 came to 0.083 µM.

`O=C(O)[C@@H]1C[C@H]1c1ccc2c(c1F)CCN(c1cc(OC(F)(F)F)ccc1F)C2` [Example 113]: the EC50 is 0.059 µM.

Turning to `Cc1ccc(-n2nc(C)c(C#N)c2N2CCc3cc(O)ccc3C2)cc1` [Example 129, 5-(6-hydroxy-3,4-dihydroisoquinolin-2(1H)-yl)-3-methyl-1-(p-tolyl)-1H-pyrazole-4-carbonitrile], the half-maximal effective concentration (EC50) was found to be 0.092 µM.

With `O=C(O)CCc1ccc2c(c1)CCN(c1cc(SC3CCC3)ncc1F)C2` [Example 26, 3-{2-[2-(cyclobutylsulfanyl)-5-fluoropyridin-4-yl]-1,2,3,4-tetrahydro-isoquinolin-6-yl}propanoic acid], the EC50 is 0.097 µM.

Turning to `CO[C@H]1C[C@H](Oc2cc(F)c(F)c(N3CCc4cc(CCc5nnn[nH]5)ccc4C3)c2)C1` [Example 132, 6-(2-(1H-tetrazol-5-yl)ethyl)-2-(2,3-difluoro-5-((1r,3r)-3-methoxylcyclobutoxy)-phenyl)-1,2,3,4-tetrahydroisoquinoline], the EC50 was found to be 0.406 µM.

As for `Cc1ccc(-n2nc(C)c(F)c2N2CCc3cc(CCC(=O)O)ccc3C2)cc1` [Example 47, 3-{2-[4-fluoro-3-methyl-1-(4-methylphenyl)-1H-pyrazol-5-yl]-1,2,3,4-tetrahydroisoquinolin-6-yl} propanoic acid], the EC50 was found to be 0.091 µM.

On to `O=C(O)C1CC1c1ccc2c(c1)CCN(c1cc(OC(F)(F)F)cc(Cl)c1F)C2` (stereo not shown) [Example 104, 2-{2-[3-chloro-2-fluoro-5-(trifluoro-methoxy)phenyl]-1,2,3,4-tetra-hydroisoquinolin-6-yl}cyclo-propane-carboxylic acid], for which the concentration for a half-maximal effect (EC50) was found to be 4.04 µM.

Take `O=C(O)CCc1ccc2c(c1F)CCN(c1cc(OC3CCC3)ccc1F)C2` [Example 61, 3-(2-(5-cyclobutoxy-2-fluorophenyl)-5-fluoro-1,2,3,4-tetrahydro-isoquinolin-6-yl)-propanoic acid]: the EC50 came to 0.028 µM.

With `COc1ccc(-n2nc(C)c(C#N)c2N2CCc3cc(CCCCC(=O)O)ccc3C2)cc1` [Example 133, 5-{2-[4-cyano-1-(4-methoxyphenyl)-3-methyl-1H-pyrazol-5-yl]-1,2,3,4-tetrahydroisoquinolin-6-yl} pentanoic acid], the EC50 worked out at 0.05 µM.

For the molecule `C[C@H]1C[C@H](Oc2cc(F)c(F)c(N3CCc4cc([C@@H]5C[C@H]5C(=O)O)ccc4C3)c2)C1` [Example 101, (1R,2R)-2-(2-{2,3-difluoro-5-[(trans-3-methylcyclobutyl)oxy]phenyl}-1,2,3,4-tetrahydroiso-quinolin-6-yl)-cyclopropane-carboxylic acid], the EC50 came out at 0.273 µM.

Regarding `O=C(O)CCc1ccc2c(c1F)CCN(c1cccc(C3CC3)n1)C2` [Example 154, 3-[2-(6-cyclopropylpyridin-2-yl)-5-fluoro-1,2,3,4-tetrahydroiso-quinolin-6-yl]propanoic acid], the EC50 is 0.167 µM.

Take `CC1c2ccc(CCC(=O)O)cc2CCN1c1cc(OC2CCC2)cc(F)c1F` (stereo not shown) [Example 32, 3-{2-[5-(cyclobutyloxy)-2,3-difluorophenyl]-1-methyl-1,2,3,4-tetrahydroisoquinolin-6-yl}-propanoic acid]: the EC50 was determined as 0.233 µM.

In the case of `Cc1ccc(-n2nc(C)c(C#N)c2N2CCc3cc(CCCCC(=O)O)ccc3C2)cc1` [Example 127, 5-(2-(4-cyano-3-methyl-1-(p-tolyl)-1H-pyrazol-5-yl)-1,2,3,4-tetrahydro-isoquinolin-6-yl)pentanoic acid], the EC50 turned out to be 0.035 µM.

One may read the EC50 as the midpoint of the concentration-response curve.
